Source: the CheMixHub viscosity set
Where “and” joins values, the source holds several entries; their conditions need not be identical. Identical values can stand only once.

Experiment: xn = mol fraction of the nth substance listed

[Cl-].[Na+] + O
Conditions | viscosity
293.15 K, 101.3 kPa, x1 = 0.02 | 1.079 mPa·s
293.15 K, 101.3 kPa, x1 = 0.03479 | 1.188 mPa·s
295.95 K, 100 kPa, x1 = 0.045 | 1.205 mPa·s
296.05 K, 100 kPa, x1 = 0.006 | 0.95 mPa·s
296.17 K, 100 kPa, x1 = 0.06928 | 1.448 mPa·s
296.24 K, 100 kPa, x1 = 0.06928 | 1.444 mPa·s
296.26 K, 100 kPa, x1 = 0.06928 | 1.444 mPa·s
296.5 K, 100 kPa, x1 = 0.045 | 1.192 mPa·s
296.51 K, 100 kPa, x1 = 0.045 | 1.191 mPa·s
296.65 K, 100 kPa, x1 = 0.008493 | 0.958 mPa·s and 0.96 mPa·s
296.77 K, 100 kPa, x1 = 0.06928 | 1.427 mPa·s
297.15 K, 100 kPa, x1 = 0.01884 | 1.001 mPa·s and 1.002 mPa·s
298.15 K, 100 kPa, x1 = 0.04394 | 1.132 mPa·s
298.15 K, 100 kPa, x1 = 0.05559 | 1.241 mPa·s
298.15 K, 101.3 kPa, x1 = 0.001798 | 0.8994 mPa·s
298.15 K, 101.3 kPa, x1 = 0.005732 | 0.9164 mPa·s
298.15 K, 101.3 kPa, x1 = 0.009 | 0.9256 mPa·s
298.15 K, 101.3 kPa, x1 = 0.01421 | 0.9571 mPa·s
298.15 K, 101.3 kPa, x1 = 0.02 | 0.9683 mPa·s
298.15 K, 101.3 kPa, x1 = 0.02116 | 0.9928 mPa·s
298.15 K, 101.3 kPa, x1 = 0.03479 | 1.071 mPa·s
298.15 K, 101.32 kPa, x1 = 0.09892 | 1.633 mPa·s
298.65 K, 100 kPa, x1 = 0.07389 | 1.412 mPa·s and 1.413 mPa·s and 1.41 mPa·s
300.65 K, 100 kPa, x1 = 0.08874 | 1.525 mPa·s
301.01 K, 100 kPa, x1 = 0.09185 | 1.546 mPa·s
301.02 K, 100 kPa, x1 = 0.09185 | 1.545 mPa·s
301.09 K, 100 kPa, x1 = 0.06928 | 1.299 mPa·s
301.12 K, 100 kPa, x1 = 0.06928 | 1.298 mPa·s
301.15 K, 100 kPa, x1 = 0.008493 | 0.868 mPa·s
301.25 K, 100 kPa, x1 = 0.01884 | 0.9164 mPa·s and 0.9176 mPa·s
301.59 K, 100 kPa, x1 = 0.045 | 1.071 mPa·s
301.67 K, 100 kPa, x1 = 0.045 | 1.067 mPa·s
301.68 K, 100 kPa, x1 = 0.045 | 1.069 mPa·s
301.71 K, 100 kPa, x1 = 0.09185 | 1.521 mPa·s
301.87 K, 100 kPa, x1 = 0.06928 | 1.277 mPa·s
303.15 K, 100 kPa, x1 = 0.02582 | 0.92 mPa·s
303.15 K, 101 kPa, x1 = 0.008924 | 0.8232 mPa·s
303.15 K, 101 kPa, x1 = 0.01768 | 0.8649 mPa·s
303.15 K, 101 kPa, x1 = 0.02626 | 0.911 mPa·s
303.15 K, 101.3 kPa, x1 = 0.001 | 0.807 mPa·s
303.15 K, 101.3 kPa, x1 = 0.009 | 0.8358 mPa·s
303.15 K, 101.3 kPa, x1 = 0.02 | 0.8758 mPa·s
303.15 K, 101.3 kPa, x1 = 0.03479 | 0.9703 mPa·s
303.65 K, 100 kPa, x1 = 0.04394 | 1.016 mPa·s and 1.019 mPa·s
304.15 K, 100 kPa, x1 = 0.05559 | 1.096 mPa·s and 1.095 mPa·s
308.15 K, 100 kPa, x1 = 0.07389 | 1.166 mPa·s
308.15 K, 101.3 kPa, x1 = 0.001798 | 0.7274 mPa·s
308.15 K, 101.3 kPa, x1 = 0.00359 | 0.7334 mPa·s
308.15 K, 101.3 kPa, x1 = 0.005732 | 0.7425 mPa·s
308.15 K, 101.3 kPa, x1 = 0.008927 | 0.7567 mPa·s
308.15 K, 101.3 kPa, x1 = 0.01421 | 0.7787 mPa·s
308.15 K, 101.3 kPa, x1 = 0.02116 | 0.81 mPa·s
308.65 K, 100 kPa, x1 = 0.07389 | 1.151 mPa·s and 1.152 mPa·s
308.66 K, 100 kPa, x1 = 0.06928 | 1.115 mPa·s and 1.116 mPa·s
308.68 K, 100 kPa, x1 = 0.06928 | 1.116 mPa·s
308.71 K, 100 kPa, x1 = 0.06928 | 1.113 mPa·s
308.73 K, 100 kPa, x1 = 0.06928 | 1.113 mPa·s
309.04 K, 100 kPa, x1 = 0.045 | 0.9262 mPa·s
309.11 K, 100 kPa, x1 = 0.045 | 0.926 mPa·s
309.26 K, 100 kPa, x1 = 0.045 | 0.9211 mPa·s
313.15 K, 100 kPa, x1 = 0.05559 | 0.926 mPa·s and 0.924 mPa·s
313.15 K, 101 kPa, x1 = 0.008924 | 0.6852 mPa·s
313.15 K, 101 kPa, x1 = 0.01768 | 0.7209 mPa·s
313.15 K, 101 kPa, x1 = 0.02626 | 0.759 mPa·s
313.15 K, 101.3 kPa, x1 = 0.001 | 0.668 mPa·s
313.15 K, 101.3 kPa, x1 = 0.009 | 0.6992 mPa·s
313.15 K, 101.3 kPa, x1 = 0.02 | 0.7327 mPa·s
313.15 K, 101.3 kPa, x1 = 0.03479 | 0.8126 mPa·s
313.15 K, 101.32 kPa, x1 = 0.1014 | 1.281 mPa·s
313.65 K, 100 kPa, x1 = 0.008493 | 0.679 mPa·s
313.65 K, 100 kPa, x1 = 0.02582 | 0.751 mPa·s and 0.75 mPa·s and 0.748 mPa·s
314.15 K, 100 kPa, x1 = 0.04394 | 0.834 mPa·s
317.65 K, 100 kPa, x1 = 0.08874 | 1.092 mPa·s and 1.096 mPa·s
318.15 K, 100 kPa, x1 = 0.07389 | 0.974 mPa·s and 0.97 mPa·s and 0.973 mPa·s
318.15 K, 101.3 kPa, x1 = 0.001798 | 0.6031 mPa·s
318.15 K, 101.3 kPa, x1 = 0.00359 | 0.6082 mPa·s
318.15 K, 101.3 kPa, x1 = 0.005732 | 0.6163 mPa·s
318.15 K, 101.3 kPa, x1 = 0.008927 | 0.6293 mPa·s
318.15 K, 101.3 kPa, x1 = 0.01421 | 0.6488 mPa·s
323.15 K, 101 kPa, x1 = 0.008924 | 0.5852 mPa·s
323.15 K, 101 kPa, x1 = 0.01768 | 0.617 mPa·s
323.15 K, 101 kPa, x1 = 0.02626 | 0.6491 mPa·s
323.15 K, 101.3 kPa, x1 = 0.009 | 0.6002 mPa·s
323.15 K, 101.3 kPa, x1 = 0.02 | 0.6302 mPa·s
323.15 K, 101.3 kPa, x1 = 0.03479 | 0.6611 mPa·s

[Al] + [Ga]
323 K, 101 kPa
Conditions | viscosity [mPa·s]
x1 = 0.021 | 1.529
x1 = 0.1 | 1.638

CC(O)CO (stereo not drawn) + CC(=O)N(C)C
viscosity [mPa·s], 101 kPa
Conditions | x2 = 0.0807 | x2 = 0.0999 | x2 = 0.2 | x2 = 0.2994 | x2 = 0.4014 | x2 = 0.4996 | x2 = 0.6 | x2 = 0.6954 | x2 = 0.7937 | x2 = 0.8997
293.15 K | 36.91 | 33.19 | 19.06 | 11.57 | 7.324 | 4.919 | 3.403 | 2.466 | 1.827 | 1.349
303.15 K | 21.61 | 19.64 | 12.06 | 7.768 | 5.202 | 3.659 | 2.637 | 1.987 | 1.512 | 1.151
313.15 K | 13.49 | 12.39 | 8.071 | 5.477 | 3.845 | 2.819 | 2.108 | 1.634 | 1.277 | 1
323.15 K | 8.96 | 8.317 | 5.673 | 4.023 | 2.939 | 2.229 | 1.718 | 1.368 | 1.097 | 0.879

O=C1CCCC1 + Clc1ccccc1
298.15 K, 101 kPa
Conditions | viscosity [mPa·s]
x2 = 0.0165 | 1.122
x2 = 0.0498 | 1.117
x2 = 0.1006 | 1.108
x2 = 0.1542 | 1.097
x2 = 0.2087 | 1.084
x2 = 0.266 | 1.068
x2 = 0.3245 | 1.05
x2 = 0.3841 | 1.023
x2 = 0.4488 | 0.993
x2 = 0.5148 | 0.959
x2 = 0.5836 | 0.92
x2 = 0.6542 | 0.882
x2 = 0.739 | 0.835
x2 = 0.8057 | 0.802
x2 = 0.8869 | 0.769
x2 = 0.9704 | 0.745
